Results reported in patent publication US20040162274A1, “Inhibition of steroid synthesis by use of progesterone or a progesterone receptor agonist” (priority 2002, published 2004).

Experiments:
Format in all cases: cell-based, rat
[1] = system: isolated Leydig cells of rats; test: hCG-induced cAMP production in isolated Leydig cells of rats (ELISA); details: for amount of cAMP formed in the cells in response to gonadotropic stimulation: FIGS. 2 and 3
Protocol: (§1) The testicles of young (three months old) and old (23-24 months old) Wistar rats (Charles River, Sulzfeld, Germany) were removed immediately after killing the rats by means of carbon dioxide anaesthesia and cervical dislocation.
(§2) In order to isolate and to purify the Leydig cells from the testicles of young and old rats, the decapsulated testicular mass of healthy Wistar rats was treated with collagenase (0.25 mg/ml) for 30 minutes at room temperature as described by Mukhopadhyay et al., Biochem. J., 239:463-467 (1986a), Mukhopadhyay et al., FEBS Lett., 202:111-116 (1986b)). The homogenous cell suspension so obtained was filtered through a nylon filter to obtain an impure Leydig cell preparation. After further purification by means of a Percoll gradient, the final number of high-grade purified Leydig cells was determined using a Neubauer chamber.
Aliquots of 100,000 cells per incubation tube were used for the experiments in which cAMP was measured. The cells were pre-incubated for 3 hours and subsequently incubated for 30 minutes with or without the addition of different concentrations of hCG as a surrogate for LH. In order to investigate the effect of the different steroids, Leydig cells were subjected to steroids for 3 hours as described. The cells were then stimulated with hCG (3 ng/ml) for 30 minutes. Incubation was stopped by the addition of absolute ethanol (final alcohol concentration ca. 80%) and subsequent mixing by means of vortices. The ethanol extract was evaporated until dry, and the residue dissolved in 1 ml of MEM, which contained 0.1% sodium azide. The amount of cAMP formed was determined by means of a specific ELISA, which was carried out as described in Budnik and Mukhopadhyay, FEBS Letters, 419:4-8 (1997). However, commercially available ELISAs, such as, for example, CM 59221 (IBL, Hamburg, Germany) or DE 0355 or DE 0450 (R&D Systems GmbH, Wiesbaden, Germany) can also be used.
Leydig cells were subjected to 3 different steroids for 3 hours (see FIG. 1). Subsequently, the cells were stimulated over 30 minutes with hCG (human chorion gonadotropin; 3 ng/ml) as a surrogate for LH.
The amount of cAMP formed was determined using a specific ELISA.

[2] = system: isolated Leydig cells of rats; test: hCG-induced testosterone production in isolated Leydig cells of rats; details: different concentrations for 3 hours, then hCG 5 ng/ml for 3 hours; testosterone in medium; FIG. 3
Protocol: as §1, §2
Similar culture conditions as described above were used for experiments, in which testosterone was measured. However, aliquots of 50,000 cells per incubation tube were used. […] The content of testosterone was determined by means of specific, commercially available kits (IBL, Hamburg). The amount of testosterone for 100,000 cells was calculated on the basis of the measured values.
Both R5020 and drospirenone are clearly, structurally different from testosterone. […] Then, the quantity of testosterone that accumulated in the medium was measured.

StAR protein = test: StAR expression in Leydig cells in vitro (northern blot)
Excerpt: RNA was isolated from 1.5×10^6 high-quality cleaned Leydig cells, which were cultivated in 12-well plates (750,000 cells/well). The RNA was extracted in accordance with a modified single-step method of Chomczynski and Sacchi, Anal. Biochem., 162:156-159 (1987), using the small-scale phenol-free RNA isolation kit (Ambion Inc., Austin, Tex.). According to the size, the isolated RNA was separated by gel electrophoresis in a 1.2% agarose gel using the formaldhyde/morpholino-propane sulphonic acid method (Sambrook et al., Vol.1, 7.37, 7.39-7.52, Nolan, C. (Ed), Cold Spring Harbor Laboratory Press, Cold Spring Harbor, N.Y.). The transfer (blotting) of the RNA from the gel onto a nylon membrane (nytran, Schleicher and Schüll, Dassel, Germany) was carried out by capillary transfer using a downwards-directed transfer for 4 hours in accordance with the manufacturer's instructions (Ambion Inc., Austin, Tex.; AMS Biotechnology, Wiesbaden, Germany) with modifications by Chomczynski, P., Anal. Biochem., 201:134-139 (1992). […]
As the gestagens mentioned above apparently both have inhibitory effects on cAMP and on the production of steroids in gonadotropin-stimulated Leydig cells, the inhibitory effects of progesterone on the quantity of StAR protein expressed were analysed. […] At the end of the incubation, total RNA was extracted and StAR protein expression was analysed using northern blots. […]

SMILES	amount of cAMP formed in the cells in response to gonadotropic stimulation [1]	effect on hCG-induced production of testosterone [2]	effect on cAMP reaction to gonadotropin stimulation ([1]; Leydig cells subjected to steroid 3 hours, then hCG 3 ng/ml 30 minutes, FIG. 1)	effect on hCG-induced cAMP formation at 0.1 μmol/l ([1]; concentration 0.1 μmol/l (10^−7 mol/l))	effect on hCG-induced cAMP formation, dose-response curve ([1]; dose-response curve, FIG. 2)	effect on hCG-induced cAMP formation at higher concentrations ([1]; higher concentrations, up to 2.5 μmol/l)	hCG-stimulated amounts of StAR protein (StAR protein; pre-incubation 3 hours, then hCG 5 ng/ml 3 hours, Lane 4 vs Lane 2, FIG. 4)	expression of StAR protein in cells not treated with a gonadotropin (StAR protein; pre-treatment 3 hours, no hCG, Lane 3, FIG. 4)
CCC(=O)[C@@]1(C)CC[C@H]2[C@@H]3CCC4=CC(=O)CCC4=C3CC[C@@]21C [R5020]	drastically reduced	able to inhibit the production of testosterone	–	–	–	–	–	–
C[C@]12CCC(=O)C=C1[C@@H]1C[C@@H]1[C@H]1[C@@H]3[C@@H]4C[C@@H]4[C@@]4(CCC(=O)O4)[C@@]3(C)CC[C@@H]12 [drospirenone]	drastically reduced	able to inhibit the production of testosterone	–	–	–	–	–	–
CC(=O)[C@H]1CC[C@H]2[C@@H]3CCC4=CC(=O)CC[C@]4(C)[C@H]3CC[C@]12C [progesterone, 4-pregnene-3,20-dione]	–	–	significantly inhibit	almost no effects	dose-dependent inhibitory effect	clearly inhibitory effects	significant reduction	did not significantly affect
